Among the test systems are ACHN; CCRF-CEM; HCC 2998; HCT-116; Hs-578T; IGROV-1; LOX IMVI; M14; MDA-MB-231; Malme-3M; NCI-H23; NCI-H460; NCI/ADR-RES; OVCAR-3; PC-3; RPMI-8226; SF-295; SK-MEL-2; T47D; UACC-257.
Experiment in all cases: inhibition of tumour cell growth, NCI panel, 48 h

Structures are written as SMILES.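 Values below derive from 48-hour exposures of cells grown in 96-well plates, with endpoints linearly interpolated between the two concentrations bracketing the appropriate inhibition level. GI50 is the concentration that inhibits growth by half.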 Active and inactive are the calls of the source. Cut-off read from the data, not from the text of the source: active = GI50 up to about 1.1 µM and inactive = higher. Where only a bound is given, the exact number is not on record here.

As for `CC(=O)NC(=O)/N=C1\NCCC(=O)N1CCc1c[nH]c2ccccc12`, the GI50 with ACHN, with CCRF-CEM, with HCC 2998, with HCT-116, in the assay on Hs-578T and in the assay with IGROV-1 was > 100 µM (inactive) in each case. The GI50 in the assay with LOX IMVI, with M14, with MDA-MB-231, in the assay on Malme-3M, with NCI-H23 and with NCI-H460 was > 100 µM (inactive) in each case. Moreover, the GI50 in the assay on NCI/ADR-RES, with OVCAR-3, in the assay on PC-3, with RPMI-8226, in the assay with SF-295 and in the assay with SK-MEL-2 was > 100 µM (inactive) in each case. Further, the GI50 with T47D and with UACC-257 was > 100 µM (inactive) throughout.

For the molecule `CCOC(=O)C1(Cc2ccccc2)C=CN(C(=O)c2ccccc2)C=C1`, the GI50 in the assay on ACHN is 34.1 µM (inactive); with CCRF-CEM it was 20.9 µM (inactive); in the assay with HCC 2998, 63.4 µM (inactive); with HCT-116, 29.8 µM (inactive); in the assay on Hs-578T it was 32.5 µM (inactive); in the assay on IGROV-1, 61.5 µM (inactive). Besides, the GI50 was 34.4 µM (inactive) in the assay with LOX IMVI; 35.5 µM (inactive) in the assay with M14; 37 µM (inactive) in the assay on MDA-MB-231; 26.6 µM (inactive) in the assay with Malme-3M; 30.1 µM (inactive) with NCI-H23; 51.1 µM (inactive) in the assay on NCI-H460. Moreover, the GI50 with NCI/ADR-RES is 36.6 µM (inactive); with OVCAR-3 it was 41.3 µM (inactive); in the assay on PC-3, 25.4 µM (inactive); in the assay on RPMI-8226, 18 µM (inactive); in the assay on SF-295, 36 µM (inactive); in the assay with SK-MEL-2, 18.1 µM (inactive). For the same molecule, the results for the GI50 in the assay with T47D and with UACC-257 were 16.1 µM (inactive) and 20.6 µM (inactive), respectively.

Turning to `C1=CC2C(C3CN(c4ccccc4)N=C13)C1C3C4C=CC21C=CC43` (stereo not drawn), the GI50 with ACHN was > 100 µM (inactive); in the assay with CCRF-CEM, > 69.3 µM (inactive); with HCC 2998, > 100 µM (inactive); in the assay on HCT-116 it was > 100 µM (inactive); in the assay with Hs-578T, > 100 µM (inactive); in the assay on IGROV-1, > 100 µM (inactive). Also, the GI50 in the assay with LOX IMVI is > 100 µM (inactive); with M14, > 100 µM (inactive); in the assay on MDA-MB-231, > 100 µM (inactive); in the assay on Malme-3M, 57.5 µM (inactive); in the assay on NCI-H23, > 100 µM (inactive); in the assay on NCI-H460 it was > 100 µM (inactive). Further, the GI50 with NCI/ADR-RES, in the assay with OVCAR-3, with PC-3, in the assay on RPMI-8226, in the assay with SF-295 and in the assay with SK-MEL-2 was > 100 µM (inactive) each time. In addition, the GI50 with T47D was 0.189 µM (active); in the assay with UACC-257, > 100 µM (inactive).

Regarding `CC(=O)OC1=NN=C2COC(c3ccccc3OC(C)=O)=NN2C1`, the GI50 in the assay on ACHN is > 50 µM (inactive); with CCRF-CEM, > 50 µM (inactive); with HCC 2998 it was > 50 µM (inactive); in the assay on HCT-116, > 50 µM (inactive); in the assay on Hs-578T, 24 µM (inactive); in the assay on IGROV-1, > 50 µM (inactive). Besides, the GI50 was 24.1 µM (inactive) with LOX IMVI; 16.7 µM (inactive) with M14; > 50 µM (inactive) with MDA-MB-231; 27.2 µM (inactive) in the assay with Malme-3M; > 50 µM (inactive) in the assay on NCI-H23; > 50 µM (inactive) in the assay on NCI-H460. Besides, the GI50 with NCI/ADR-RES is > 50 µM (inactive); in the assay with OVCAR-3, > 50 µM (inactive); with PC-3, 20.1 µM (inactive); in the assay on RPMI-8226, > 50 µM (inactive); in the assay on SF-295, > 50 µM (inactive); with SK-MEL-2, 36.2 µM (inactive). The GI50 is > 50 µM (inactive) with T47D and 20.4 µM (inactive) with UACC-257.

Consider `Cc1c(F)c(N)c2c(=O)cc(-c3ccc(NC(=O)CN(C)C)c(F)c3)oc2c1F`, for which the GI50 in the assay on ACHN is > 100 µM (inactive); with CCRF-CEM, 21 µM (inactive); in the assay with HCC 2998 it was 21.5 µM (inactive); with HCT-116 it was > 100 µM (inactive); in the assay with Hs-578T, > 100 µM (inactive); in the assay with IGROV-1 it was 38 µM (inactive). The GI50 is 33 µM (inactive) with LOX IMVI; > 100 µM (inactive) in the assay on M14; 27.8 µM (inactive) in the assay on MDA-MB-231; > 100 µM (inactive) in the assay with Malme-3M; > 100 µM (inactive) with NCI-H23; 24.2 µM (inactive) in the assay on NCI-H460. Besides, the GI50 was 68.7 µM (inactive) in the assay with NCI/ADR-RES; 0.0456 µM (active) with OVCAR-3; 38.3 µM (inactive) in the assay with PC-3; 23.7 µM (inactive) in the assay with RPMI-8226; 68.1 µM (inactive) in the assay on SF-295; 60.7 µM (inactive) in the assay on SK-MEL-2. In addition, the GI50 in the assay with T47D and in the assay with UACC-257 was > 100 µM (inactive) in each case.

`COc1ccc(N2C(=O)CC(=O)N(C(=O)CCCCCCCCC(=O)N3C(=O)CC(=O)N(c4ccc(OC)cc4)C3=S)C2=S)cc1`: the GI50 in the assay on ACHN is > 100 µM (inactive); in the assay on CCRF-CEM, 31.6 µM (inactive); in the assay with HCC 2998, > 100 µM (inactive); in the assay with HCT-116, > 100 µM (inactive); in the assay with Hs-578T, > 100 µM (inactive); in the assay with LOX IMVI it was 78.3 µM (inactive). For the same molecule, the GI50 with M14, in the assay on MDA-MB-231, with Malme-3M, in the assay on NCI-H23, in the assay with NCI-H460 and in the assay on NCI/ADR-RES was > 100 µM (inactive) throughout. The GI50 in the assay with OVCAR-3 was > 100 µM (inactive); with PC-3, > 100 µM (inactive); in the assay with RPMI-8226, 44 µM (inactive); in the assay with SF-295, > 100 µM (inactive); in the assay on SK-MEL-2 it was > 100 µM (inactive); with T47D, 97.9 µM (inactive). Besides, the GI50 with UACC-257 was > 100 µM (inactive).

Take `O=C1CSC(/C=C/c2ccccc2)N1c1ccc(-c2ccc(-n3c(-c4ccccc4)nc4ccccc4c3=O)cc2)cc1` (stereo not drawn): the GI50 was 23.6 µM (inactive) in the assay with ACHN; 20.3 µM (inactive) in the assay with CCRF-CEM; 66.2 µM (inactive) with HCC 2998; > 10 µM (inactive) with Hs-578T; 20.1 µM (inactive) in the assay on IGROV-1; 15.8 µM (inactive) in the assay on LOX IMVI. Besides, the GI50 with M14 is 16.9 µM (inactive); in the assay with MDA-MB-231, 25.1 µM (inactive); with Malme-3M, 23.1 µM (inactive); in the assay on NCI-H23 it was 35.6 µM (inactive); with NCI-H460, 30.7 µM (inactive); in the assay on NCI/ADR-RES, 21.1 µM (inactive). In addition, the GI50 with OVCAR-3 is 21.2 µM (inactive); with PC-3 it was 22.2 µM (inactive); in the assay on RPMI-8226, 27.9 µM (inactive); with SF-295, 20.1 µM (inactive); in the assay on SK-MEL-2, 19.1 µM (inactive); with T47D, 15.2 µM (inactive). Moreover, in the assay with UACC-257, the GI50 is 30.3 µM (inactive).

(Values after ChEMBL document CHEMBL1201862, “PubChem BioAssay data set” (2004).)
